# Assay results taken from the supplement of paper PMC8498969.
# Legend:
# [1] = system: HEK293; experiment: IC50 for inhibition of ZIKV NS1 production
# Method: (§1)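 HEK293 cells in 1536-well plates were pre-treated with compound for 1 h, infected with ZIKV (MOI 1) for 24 h, and NS1 antigen (intra- plus extracellular) was measured by TR-FRET. Confirmation used 11-point 1:3 dilutions, and IC50 and maximal inhibition were fitted in GraphPad Prism.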
# [2] = system: HEK293; experiment: cytotoxicity IC50 (ATP content, uninfected cells); higher = less cytotoxic; details: infection: none
# [3] = system: HEK293; experiment: maximal inhibition of ZIKV NS1 production (% inhibition); higher = stronger antiviral effect
# Method: as §1
SMILES,IC50 [1],cytotoxicity IC50 [2],maximal inhibition [3]
Cc1n[nH]c2ccc(-c3cncc(OC[C@@H](N)Cc4c[nH]c5ccccc45)c3)cc12,8.5 µM,> 100 µM,103
OC[C@H](Cc1ccccc1)Nc1nc(Oc2ccc3c(c2)CCC3)nc2c1ncn2Cc1ccc(-c2ccccc2)cc1,7.8 µM,90 µM,100
CC(C)c1nn(-c2c(Cl)cccc2Cl)c2nc(Cc3ccc(OCCO)cc3)[nH]c(=O)c12,0.27 µM,> 100 µM,91
COc1ccc(-c2ccc3ncc4c(c3c2)n(-c2ccc(N3CCNCC3)c(C(F)(F)F)c2)c(=O)n4C)cn1,1.6 µM,20 µM,102
CC[C@@H](C(=O)[C@@H](C)[C@@H](O)[C@H](C)[C@@H]1O[C@@H]([C@@H](CC)C(=O)O)CC[C@@H]1C)[C@H]1O[C@]2(C=C[C@@H](O)[C@]3(CC[C@@](C)([C@H]4CC[C@](O)(CC)[C@H](C)O4)O3)O2)[C@H](C)C[C@@H]1C,17 µM,27 µM,106
COC(=O)Nc1nc2cc(C(=O)c3cccs3)ccc2[nH]1,1.1 µM,> 100 µM,68
COc1c(C)c2c(c(O)c1C/C=C(\C)CCC(=O)O)C(=O)OC2,0.54 µM,> 100 µM,106
Cc1ccc(C(=O)N(CCCN)[C@@H](c2nc3cc(Cl)ccc3c(=O)n2Cc2ccccc2)C(C)C)cc1,0.067 µM,37 µM,98
CCc1c2c(nc3ccc(OC(=O)N4CCC(N5CCCCC5)CC4)cc13)-c1cc3c(c(=O)n1C2)COC(=O)[C@]3(O)CC,1.6 µM,> 100 µM,97
CS[C@H]1SC[C@H]2C(=O)N(C)[C@@H](C(C)C)C(=O)OC[C@@H](NC(=O)c3cnc4ccccc4n3)C(=O)N[C@@H](C)C(=O)N(C)[C@@H]1C(=O)N(C)[C@@H](C(C)C)C(=O)OC[C@@H](NC(=O)c1cnc3ccccc3n1)C(=O)N[C@@H](C)C(=O)N2C,0.017 µM,> 100 µM,98
O=C1[C@H](Cc2ccc(O)cc2)N2C(=O)CCN(C(=O)NCc3ccccc3)[C@H]2CN1Cc1cccc2ccccc12,13 µM,> 100 µM,103
COc1c(OCCCN2CCOCC2)ccc2c3n(c(=NC(=O)c4cnc(N)nc4)nc12)CCN3,2.1 µM,22 µM,71
CC[C@@H]1C(=O)N(C)c2cnc(Nc3ccc(C(=O)N[C@H]4CC[C@H](N5CCN(CC6CC6)CC5)CC4)cc3OC)nc2N1C(C)C,0.065 µM,> 100 µM,101
CO[C@H]1[C@H](O)[C@@H](O)[C@H](n2c3c(Cl)cccc3c3c4c(c5c6cccc(Cl)c6[nH]c5c32)C(=O)NC4=O)O[C@@H]1CO,2.1 µM,60 µM,90
CCOC(=O)C1=C(C)NC2=C(C(=O)CC(C)(C)C2)C1c1ccc(-c2ccccc2)cc1 (centres undefined),17 µM,> 100 µM,89
Cc1ncc(-c2ccnc(Nc3ccc(S(C)(=O)=O)cc3)n2)n1C(C)C,9.2 µM,> 100 µM,99
c1cnc2c(c1)ccc1cccnc12,14 µM,3.6 µM,99
CC1=CC(=O)c2ccccc2C1=O,44 µM,45 µM,101
Cc1cc(Nc2cc(N3CCN(C)CC3)nc(Sc3ccc(NC(=O)C4CC4)cc3)n2)n[nH]1,14 µM,> 100 µM,107
OCCN1CCN(CCCN2c3ccccc3Sc3ccc(C(F)(F)F)cc32)CC1,25 µM,> 100 µM,84
C[C@H]1CCC/C=C/[C@@H]2C[C@H](O)C[C@H]2[C@H](O)/C=C/C(=O)O1,0.43 µM,> 100 µM,99
NS(=O)(=O)c1cccc2c1C(=O)c1cccc(O)c1C2=O,2.6 µM,2.8 µM,98
Cn1cc(-c2[nH]c3cc(NC(=O)[C@H](N)C4CCCCC4)cc4c3c2C=NNC4=O)cn1,0.49 µM,> 100 µM,104
CC[C@H]1CN2CCc3cc(OC)c(OC)cc3[C@@H]2C[C@@H]1C[C@H]1NCCc2cc(OC)c(OC)cc21,0.11 µM,> 100 µM,103
CC(=O)O[C@@]12CO[C@@H]1C[C@H](O)[C@@]1(C)C(=O)[C@H](O)C3=C(C)[C@@H](OC(=O)[C@H](O)[C@@H](NC(=O)OC(C)(C)C)c4ccccc4)C[C@@](O)([C@@H](OC(=O)c4ccccc4)[C@H]21)C3(C)C,50 µM,> 100 µM,66
COC[C@H](NC(=O)c1cnc(C)s1)C(=O)N[C@@H](COC)C(=O)N[C@@H](Cc1ccccc1)C(=O)[C@@]1(C)CO1,0.32 µM,0.72 µM,100
CN1CC[C@H](c2c(O)cc(O)c3c(=O)cc(-c4ccccc4Cl)oc23)[C@H](O)C1,1.2 µM,> 100 µM,93

SMILES,IC50 [1],cytotoxicity IC50 [2],maximal inhibition [3]
Oc1c(Cl)cc(Cl)c2cccnc12,46 µM,16 µM,93
CC[C@]1(O)C[C@@H]2CN(CCc3c([nH]c4ccccc34)[C@@](C(=O)OC)(c3cc4c(cc3OC)N(C)[C@H]3[C@@](O)(C(=O)OC)[C@H](OC(C)=O)[C@]5(CC)C=CCN6CC[C@]43[C@@H]65)C2)C1,5.6 µM,> 100 µM,73
Nc1cc(C(F)(F)F)c(-c2cc(N3CCOCC3)nc(N3CCOCC3)n2)cn1,4.2 µM,2.3 µM,74
C=C1C(=O)[C@]23[C@H](O)[C@H]1CC[C@H]2[C@@]12CO[C@]3(O)[C@@H](O)[C@@H]1C(C)(C)CC[C@@H]2O,17 µM,40 µM,108
COc1cc([C@@H]2c3cc4c(cc3[C@H](O)[C@H]3COC(=O)[C@@H]23)OCO4)cc(OC)c1OC,2.6 µM,> 100 µM,68
Cn1c(=O)c(-c2c(Cl)cccc2Cl)cc2cnc(Nc3ccc(N4CCOCC4)cc3)nc21,2.1 µM,6 µM,102
FC(F)c1nc2ccccc2n1-c1nc(N2CCOCC2)nc(N2CCOCC2)n1,3.9 µM,60 µM,85
O=[N+]([O-])c1ccc(O)c2ncccc12,6 µM,4.7 µM,94
COc1cccc2c1C(=O)c1c(O)c3c(c(O)c1C2=O)C[C@@](O)(C(=O)CO)C[C@@H]3O[C@H]1C[C@H](N)[C@H](O[C@@H]2CCCCO2)[C@H](C)O1,5.6 µM,> 100 µM,75
CC(C)(C)c1cnc(CSc2cnc(NC(=O)C3CCNCC3)s2)o1,1.9 µM,> 100 µM,93
COc1cc2nc(-c3cc(F)ccc3O)nc(N[C@@H]3CNC[C@H]3C(C)(C)O)c2cc1OC,12 µM,45 µM,98
CC1(C(=O)O)C2CCC(O2)C1(C)C(=O)O (centres undefined),2.6 µM,> 100 µM,105
CCn1nnc2c(N3CCOCC3)nc(-c3ccc(NC(=O)Nc4ccc(C(=O)N5CCN(C)CC5)cc4)cc3)nc21,1.6 µM,0.65 µM,79
CC(C)c1cnn2c(NCc3ccccc3)cc(N[C@@H](CO)[C@H](O)CO)nc12,1.2 µM,> 100 µM,87
C[C@@H]1C[C@@H]([C@H](O)CC2CC(=O)NC(=O)C2)C(=O)[C@@H](C)C1,0.29 µM,> 100 µM,102
CCCCC1C(=O)N(c2ccccc2)N(c2ccc(O)cc2)C1=O (centres undefined),17 µM,> 100 µM,107
CCCCc1ccc2[nH]c(NC(=O)OC)nc2c1,0.69 µM,3 µM,80
CC[C@@]1([C@@H]2O[C@@H]([C@H]3O[C@@](O)(CO)[C@H](C)C[C@@H]3C)C[C@@H]2C)CC[C@H]([C@]2(C)CC[C@]3(C[C@H](O)[C@@H](C)[C@@H]([C@@H](C)[C@@H](OC)[C@H](C)C(=O)O)O3)O2)O1,2.8 µM,> 100 µM,103
C1CCC(C(CC2CCCCN2)C2CCCCC2)CC1 (centres undefined),45 µM,50 µM,98
NC(=O)Nc1cc(-c2cccc(F)c2)sc1C(=O)N[C@H]1CCCNC1,0.37 µM,> 100 µM,99
COc1cccc2c1C(=O)c1c(O)c3c(c(O)c1C2=O)C[C@@](O)(C(C)=O)C[C@@H]3O[C@H]1C[C@H](N)[C@H](O)[C@H](C)O1,0.54 µM,> 100 µM,66
Cc1cc(C2CCCCC2)n(O)c(=O)c1,14 µM,20 µM,100
CN(C)c1ccc(C(=C2C=CC(=[N+](C)C)C=C2)c2ccccc2)cc1,1.6 µM,1.8 µM,102
COC(=O)[C@]12CCC(C)(C)C[C@H]1[C@H]1C(=O)C=C3[C@@]4(C)C=C(C#N)C(=O)C(C)(C)[C@@H]4CC[C@@]3(C)[C@]1(C)CC2,0.28 µM,2.7 µM,100
Nc1ccc(-c2ccc3ncc4ccc(=O)n(-c5cccc(C(F)(F)F)c5)c4c3c2)cn1,0.72 µM,> 100 µM,90
Cn1c(CCCC(=O)O)nc2cc(N(CCCl)CCCl)ccc21,50 µM,> 100 µM,92
